The assay deals with MCF7 cells, level of ubiquitinated substrates. The assay is described as follows: Western blot of ubiquitinated substrates in MCF7 cells. The settings on record: control, n = 3, Figures 7A,B. It counts as cell-based. (Immunoblotting shows a protein as a band on a membrane.)

Where a SMILES comes first, the peptide text is derived from it. The star is where a group is joined. Cbz = O=C(OCc1ccccc1)*

Description: DMSO was used as vehicle control. Following the end of the incubation times, MCF7 cells were harvested using 3X NuPAGE SDS Sample buffer (Invitrogen, Cat# NP0007) containing β-mercaptoethanol and 1x DNAse and sonicated in Bioruptor Pico sonicator (Diagenode) (10-sec pulse on, 10 s pulse off for 10 cycles). After boiling them at 95°C for 10 min, the samples run on 4–12% SDS-PAGE agarose gel using MOPS buffer. Proteins were transferred to the nitrocellulose membrane. Ubiquitinated substrates were detected using a mouse anti-ubiquitin (P4D1) antibody (Santa Cruz, Cat# sc-8017). Mouse anti-β-actin (Sigma-Aldrich, Cat# A5441, in 1:10000 dilution) was used to detect actin as a loading control. 800CW goat anti-mouse IgG (H + L) (Li-COR, Cat# 926–32210, 1:5000) were used as secondary antibodies. The signal was detected using direct imaging by Odyssey® CLx Infrared Imaging System (LI-COR). The experiment was repeated in triplicates. The total amount of ubiquitinated substrates and the actin level was quantified using Licor Image studio densitometry software, and the total level of ubiquitinated substrates was normalized to the actin level.

With `CC(C)C[C@@H](C=O)NC(=O)[C@H](CC(C)C)NC(=O)[C@H](CC(C)C)NC(=O)OCc1ccccc1` [MG132] (Cbz-Leu-Leu-Leu-aldehyde), the “level of ubiquitinated substrates” value (MG132 5 µM, 4 h) is recorded as “increased the level of ubiquitinated substrates”.
Consider `C=CC(=O)N1C/C(=C\c2ccc([N+](=O)[O-])cc2)C(=O)/C(=C/c2ccc([N+](=O)[O-])cc2)C1` [bAP15], for which the “level of ubiquitinated substrates” value (bAP15 1 µM, 3 h) is listed as “increased the level of ubiquitinated substrates”.

(Values after paper PMC9204298, “Inhibiting UCH-L5: Rational Design of a Cyclic Ubiquitin-Based Peptide Inhibitor” (Frontiers in Molecular Biosciences, 2022).)
